Here are results for one compound from patent US20100081702A1 (priority 2007, published 2010).

In the assay the test system is concanavalin A (ConA)-induced mouse hepatitis models (T cell-dependent liver injury models). Nature of the assay: concanavalin A (ConA)-induced mouse hepatitis model, AST and ALT in serum. The procedure:
Aspartate aminotransferase (AST) and alanine aminotransferase (ALT) in serum were measured as indices for liver injury in concanavalin A (ConA)-induced mouse hepatitis models used as T cell-dependent liver injury models. The inhibitory effects of compounds of the present invention on liver injury were studied.
A compound suspension was orally administered at a dose of 1 mg/kg to male BALE/c mice. 24 hours after the oral administration, ConA was intravenously administered at a dose of 20 mg/kg to the tails of the mice. 24 hours after the ConA administration, blood was collected from the mice, and AST and ALT in serum were measured.

Regarding `COc1ccc(CCCC(=O)c2ccc(CC[C@@](C)(N)CO)n2C)cc1C` [Compound 1], the “inhibitory effects on ALT level elevating effects” value (result in words, 1 mg/kg oral, ConA-induced mouse hepatitis) is recorded as “significant inhibitory effects”. In addition, the “AST level (mean ± S.E., IU/L)” value (serum, compound 1 mg/kg oral 24 hours before ConA 20 mg/kg intravenous, blood collected 24 hours after ConA, **P < 0.01, *P < 0.05 vs. solvent (solvent 236.9 ± 52.6, negative control 105.2 ± 26.1)) is given as 97.4 ± 9.1** IU/L. The “ALT level (mean ± S.E., IU/L)” value (serum, compound 1 mg/kg oral 24 hours before ConA 20 mg/kg intravenous, blood collected 24 hours after ConA, **P <0.01, *P <0.05 vs. solvent (solvent 454.1 ± 137.8, negative control 76.4 ± 14.2)) was 101.6 ± 19.6** IU/L.
